Experimental data as given in PubChem BioAssay (NCI).
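Where inhibition never reached the appropriate level, the endpoint shown equals the highest concentration tested. Otherwise, values were interpolated linearly from a five-concentration, 48-hour dose response in 96-well plates. At the GI50, growth is halved. TGI: concentration producing complete growth inhibition.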

Legend:
Test in all cases: NCI anticancer screen, dose series, 48 h
A549 NSCLC = test system: A549 NSCLC
HCT-116 colon = test system: HCT-116 colon
SK-MEL-5 melanoma = test system: SK-MEL-5 melanoma
SW-620 colon = test system: SW-620 colon
CAKI-1 renal = test system: CAKI-1 renal
SF-295 CNS = test system: SF-295 CNS
786-0 renal = test system: 786-0 renal
CCRF-CEM leukemia = test system: CCRF-CEM leukemia
NCI-H226 lung = test system: NCI-H226 lung
UACC-257 melanoma = test system: UACC-257 melanoma
TK-10 renal = test system: TK-10 renal
SK-MEL-2 melanoma = test system: SK-MEL-2 melanoma
SF-539 CNS = test system: SF-539 CNS
BT-549 breast = test system: BT-549 breast
MCF7 breast = test system: MCF7 breast
HCT-15 colon = test system: HCT-15 colon
MDA-MB-231 breast = test system: MDA-MB-231 breast
NCI-H460 lung = test system: NCI-H460 lung
K-562 leukemia = test system: K-562 leukemia
OVCAR-8 ovarian = test system: OVCAR-8 ovarian
U251 CNS = test system: U251 CNS
NCI/ADR-RES ovarian = test system: NCI/ADR-RES ovarian
SR leukemia = test system: SR leukemia
RXF 393 renal = test system: RXF 393 renal
HOP-92 NSCLC = test system: HOP-92 NSCLC
MOLT-4 leukemia = test system: MOLT-4 leukemia
MDA-MB-435 = test system: MDA-MB-435
ACHN renal = test system: ACHN renal
IGROV1 ovarian = test system: IGROV1 ovarian
COLO 205 colon = test system: COLO 205 colon
M14 melanoma = test system: M14 melanoma
SNB-19 CNS = test system: SNB-19 CNS
PC-3 prostate = test system: PC-3 prostate
OVCAR-5 ovarian = test system: OVCAR-5 ovarian
HS 578T breast = test system: HS 578T breast
RPMI-8226 leukemia = test system: RPMI-8226 leukemia
SNB-75 CNS = test system: SNB-75 CNS
LOX IMVI melanoma = test system: LOX IMVI melanoma
HOP-62 NSCLC = test system: HOP-62 NSCLC
A498 renal = test system: A498 renal
DU-145 prostate = test system: DU-145 prostate
OVCAR-4 ovarian = test system: OVCAR-4 ovarian
NCI-H23 lung = test system: NCI-H23 lung
UO-31 renal = test system: UO-31 renal
T-47D breast = test system: T-47D breast
SK-MEL-28 melanoma = test system: SK-MEL-28 melanoma
SK-OV-3 ovarian = test system: SK-OV-3 ovarian
SN12C renal = test system: SN12C renal
SF-268 CNS = test system: SF-268 CNS
HT29 colon = test system: HT29 colon
UACC-62 melanoma = test system: UACC-62 melanoma
HCC-2998 colon = test system: HCC-2998 colon
MALME-3M melanoma = test system: MALME-3M melanoma
OVCAR-3 ovarian = test system: OVCAR-3 ovarian
NCI-H522 lung = test system: NCI-H522 lung

`O=S(=O)(c1ccc(NC(=S)NCc2cccnc2)cc1)N1CCCCC1` was tested. Which GI50 (A549 NSCLC) did it give?
The GI50 was 11 µM.

And the TGI (A549 NSCLC)?
The TGI was > 100 µM.

And the GI50 (HCT-116 colon)?
The GI50 was 470 nM.

And the TGI (HCT-116 colon)?
Its TGI is > 100 µM.

And the GI50 (SK-MEL-5 melanoma)?
The GI50 was 12.1 µM.

What about the TGI (SK-MEL-5 melanoma) of the same compound?
The TGI was 45.8 µM.

And the GI50 (SW-620 colon)?
The GI50 was 579 nM.

What about the TGI (SW-620 colon) of the same compound?
Its TGI is > 100 µM.

And the GI50 (CAKI-1 renal)?
Its GI50 is 20.4 µM.

What about the TGI (CAKI-1 renal) of the same compound?
The TGI was > 100 µM.

And the GI50 (SF-295 CNS)?
Its GI50 is 13 µM.

What about the TGI (SF-295 CNS) of the same compound?
Its TGI is > 100 µM.

And the GI50 (786-0 renal)?
The GI50 was > 100 µM.

And the TGI (786-0 renal)?
Its TGI is > 100 µM.

And the GI50 (CCRF-CEM leukemia)?
Its GI50 is 823 nM.

What about the TGI (CCRF-CEM leukemia) of the same compound?
Its TGI is > 100 µM.

And the GI50 (NCI-H226 lung)?
The GI50 was 39.5 µM.

What about the TGI (NCI-H226 lung) of the same compound?
Its TGI is > 100 µM.

And the GI50 (UACC-257 melanoma)?
The GI50 was 42.6 µM.

And the TGI (UACC-257 melanoma)?
Its TGI is > 100 µM.

And the GI50 (TK-10 renal)?
Its GI50 is 47.5 µM.

What about the TGI (TK-10 renal) of the same compound?
The TGI was > 100 µM.

And the GI50 (SK-MEL-2 melanoma)?
The GI50 was 16.6 µM.

And the TGI (SK-MEL-2 melanoma)?
The TGI was > 100 µM.

And the GI50 (SF-539 CNS)?
Its GI50 is 446 nM.

What about the TGI (SF-539 CNS) of the same compound?
Its TGI is > 100 µM.

And the GI50 (BT-549 breast)?
The GI50 was > 100 µM.

What about the TGI (BT-549 breast) of the same compound?
The TGI was > 100 µM.

And the GI50 (MCF7 breast)?
The GI50 was 12.7 µM.

And the TGI (MCF7 breast)?
Its TGI is > 100 µM.

What about the GI50 (HCT-15 colon) of the same compound?
Its GI50 is 13.6 µM.

What about the TGI (HCT-15 colon) of the same compound?
The TGI was > 100 µM.

What about the GI50 (MDA-MB-231 breast) of the same compound?
The GI50 was 26.4 µM.

What about the TGI (MDA-MB-231 breast) of the same compound?
Its TGI is > 100 µM.

What about the GI50 (NCI-H460 lung) of the same compound?
Its GI50 is 7.67 µM.

And the TGI (NCI-H460 lung)?
The TGI was > 100 µM.

And the GI50 (K-562 leukemia)?
The GI50 was 1380 nM.

And the TGI (K-562 leukemia)?
Its TGI is > 100 µM.

What about the GI50 (OVCAR-8 ovarian) of the same compound?
Its GI50 is 99.1 nM.

And the TGI (OVCAR-8 ovarian)?
Its TGI is > 100 µM.

And the GI50 (U251 CNS)?
Its GI50 is 1820 nM.

What about the TGI (U251 CNS) of the same compound?
The TGI was > 100 µM.

What about the GI50 (NCI/ADR-RES ovarian) of the same compound?
Its GI50 is 8.36 µM.

What about the TGI (NCI/ADR-RES ovarian) of the same compound?
Its TGI is > 100 µM.

What about the GI50 (SR leukemia) of the same compound?
The GI50 was 36.8 µM.

What about the TGI (SR leukemia) of the same compound?
The TGI was > 100 µM.

And the GI50 (RXF 393 renal)?
Its GI50 is 72.4 µM.

What about the TGI (RXF 393 renal) of the same compound?
Its TGI is > 100 µM.

What about the GI50 (HOP-92 NSCLC) of the same compound?
Its GI50 is 11.1 µM.

What about the TGI (HOP-92 NSCLC) of the same compound?
The TGI was > 100 µM.

And the GI50 (MOLT-4 leukemia)?
The GI50 was 40.3 µM.

What about the TGI (MOLT-4 leukemia) of the same compound?
The TGI was > 100 µM.

What about the GI50 (MDA-MB-435) of the same compound?
Its GI50 is 3.04 µM.

What about the TGI (MDA-MB-435) of the same compound?
Its TGI is > 100 µM.

What about the GI50 (ACHN renal) of the same compound?
Its GI50 is 29.3 µM.

And the TGI (ACHN renal)?
The TGI was > 100 µM.

What about the GI50 (IGROV1 ovarian) of the same compound?
The GI50 was 23.3 µM.

What about the TGI (IGROV1 ovarian) of the same compound?
The TGI was > 100 µM.

What about the GI50 (COLO 205 colon) of the same compound?
The GI50 was 8.63 µM.

And the TGI (COLO 205 colon)?
The TGI was > 100 µM.

And the GI50 (M14 melanoma)?
The GI50 was 3.9 µM.

What about the TGI (M14 melanoma) of the same compound?
The TGI was > 100 µM.

What about the GI50 (SNB-19 CNS) of the same compound?
Its GI50 is 9.5 µM.

What about the TGI (SNB-19 CNS) of the same compound?
Its TGI is > 100 µM.

What about the GI50 (PC-3 prostate) of the same compound?
Its GI50 is 1500 nM.

And the TGI (PC-3 prostate)?
Its TGI is > 100 µM.

What about the GI50 (OVCAR-5 ovarian) of the same compound?
The GI50 was 5.46 µM.

What about the TGI (OVCAR-5 ovarian) of the same compound?
The TGI was > 100 µM.

And the GI50 (HS 578T breast)?
Its GI50 is 8.65 µM.

What about the TGI (HS 578T breast) of the same compound?
Its TGI is > 100 µM.

What about the GI50 (RPMI-8226 leukemia) of the same compound?
Its GI50 is 2170 nM.

What about the TGI (RPMI-8226 leukemia) of the same compound?
The TGI was > 100 µM.

What about the GI50 (SNB-75 CNS) of the same compound?
Its GI50 is 25.6 µM.

What about the TGI (SNB-75 CNS) of the same compound?
The TGI was > 100 µM.

And the GI50 (LOX IMVI melanoma)?
Its GI50 is 6.93 µM.

What about the TGI (LOX IMVI melanoma) of the same compound?
The TGI was > 100 µM.

What about the GI50 (HOP-62 NSCLC) of the same compound?
Its GI50 is > 100 µM.

And the TGI (HOP-62 NSCLC)?
The TGI was > 100 µM.

And the GI50 (A498 renal)?
The GI50 was 15 µM.

And the TGI (A498 renal)?
The TGI was > 100 µM.

What about the GI50 (DU-145 prostate) of the same compound?
Its GI50 is 6.12 µM.

And the TGI (DU-145 prostate)?
Its TGI is > 100 µM.

And the GI50 (OVCAR-4 ovarian)?
The GI50 was 23 µM.

What about the TGI (OVCAR-4 ovarian) of the same compound?
Its TGI is > 100 µM.

What about the GI50 (NCI-H23 lung) of the same compound?
The GI50 was 28.6 µM.

What about the TGI (NCI-H23 lung) of the same compound?
Its TGI is > 100 µM.

What about the GI50 (UO-31 renal) of the same compound?
Its GI50 is 21.5 µM.

What about the TGI (UO-31 renal) of the same compound?
Its TGI is > 100 µM.

And the GI50 (T-47D breast)?
The GI50 was 7.33 µM.

And the TGI (T-47D breast)?
Its TGI is > 100 µM.

And the GI50 (SK-MEL-28 melanoma)?
The GI50 was 50.4 µM.

And the TGI (SK-MEL-28 melanoma)?
The TGI was > 100 µM.

What about the GI50 (SK-OV-3 ovarian) of the same compound?
Its GI50 is > 100 µM.

What about the TGI (SK-OV-3 ovarian) of the same compound?
Its TGI is > 100 µM.

And the GI50 (SN12C renal)?
The GI50 was 210 nM.

And the TGI (SN12C renal)?
Its TGI is > 100 µM.

And the GI50 (SF-268 CNS)?
Its GI50 is 17.2 µM.

What about the TGI (SF-268 CNS) of the same compound?
The TGI was > 100 µM.

And the GI50 (HT29 colon)?
The GI50 was 90.5 µM.

And the TGI (HT29 colon)?
Its TGI is > 100 µM.

What about the GI50 (UACC-62 melanoma) of the same compound?
Its GI50 is 23.4 µM.

And the TGI (UACC-62 melanoma)?
Its TGI is > 100 µM.

And the GI50 (HCC-2998 colon)?
Its GI50 is > 100 µM.

What about the TGI (HCC-2998 colon) of the same compound?
The TGI was > 100 µM.

And the GI50 (MALME-3M melanoma)?
Its GI50 is 84.9 µM.

And the TGI (MALME-3M melanoma)?
The TGI was > 100 µM.

What about the GI50 (OVCAR-3 ovarian) of the same compound?
Its GI50 is 52.6 µM.

What about the TGI (OVCAR-3 ovarian) of the same compound?
Its TGI is > 100 µM.

What about the GI50 (NCI-H522 lung) of the same compound?
The GI50 was 10.1 µM.

What about the TGI (NCI-H522 lung) of the same compound?
Its TGI is > 100 µM.
